Laboratory results reported in patent US11583556B2, “Modified cells and methods of therapy” (Regents of the University of Minnesota, priority 2015, dated 2023).

Legend:
Assay type in all cases: cell-based, human
[1] = tested on: AAVS1; experiment: Validation of gRNAs in HEK293T cells, Surveyor digest and densitometry, AAVS1 site; settings: AAVS1 target gene site, 3 days
Experimental: (§1) HEK293T cells were plated out at a density of 1×10^5 cells per well in a 24 well plate. 150 uL of Opti-MEM medium was combined with 1.5 ug of gRNA plasmid, 1.5 ug of Cas9 plasmid. Another 150 uL of Opti-MEM medium was combined with 5 ul of Lipofectamine 2000 Transfection reagent (Invitrogen). The solutions were combined together and incubated for 15 minutes at room temperature. The DNA-lipid complex was added dropwise to wells of the 24 well plate. Cells were incubated for 3 days at 37° C. and genomic DNA was collected using the GeneJET Genomic DNA Purification Kit (Thermo Scientific). Activity of the gRNAs was quantified by a Surveyor Digest, gel electrophoresis, and densitometry (FIG. 60 and FIG. 61) (Guschin, D. Y., et al., “A Rapid and General Assay for Monitoring Endogenous Gene Modification,” Methods in Molecular Biology, 649: 247-256 (2010)).
(§2) The percentage numbers in Table 7 indicated the percent of gene modifications in the sample.

[2] = tested on: CCR5; experiment: Validation of gRNAs in HEK293T cells, Surveyor digest and densitometry, CCR5 site; settings: CCR5 target gene site, 3 days
Experimental: as §1
(§3) The efficiencies of Cas9 in creating double strand break (DSB) with the assistance of different gRNA sequences were listed in Table 7. The percentage numbers in Table 7 indicated the percent of gene modifications in the sample.

[3] = tested on: CTLA4; experiment: Validation of gRNAs in HEK293T cells, Surveyor digest and densitometry, CTLA4 site; settings: CTLA4 target gene site, 3 days
Experimental: as §1, §3

[4] = tested on: HPRT; experiment: Validation of gRNAs in HEK293T cells, Surveyor digest and densitometry, HPRT site; settings: HPRT target gene site, 3 days
Experimental: as §1, §3

[5] = tested on: PD1; experiment: Validation of gRNAs in HEK293T cells, Surveyor digest and densitometry, PD1 site; settings: PD1 target gene site, 3 days
Experimental: as §1, §2

“AAVS1 gRNA#1: guide RNA to AAVS1; sense oligo SEQ ID 19 CACCGTGGGGGTTAGACCCAATATC” was tested, and the “efficiency of Cas9/gRNA pair in creating double strand break (percent of gene modifications)” value [1] was 32.99%.

For “AAVS1 gRNA#2: guide RNA to AAVS1; sense oligo SEQ ID 21 CACCGACCCCACAGTGGGGCCACTA”, the “efficiency of Cas9/gRNA pair in creating double strand break (percent of gene modifications)” value [1] was 27.10%.

In the case of “AAVS1 gRNA#5: guide RNA to AAVS1; sense oligo SEQ ID 27 CACCGCCGGCCCTGGGAATATAAGG”, the “efficiency of Cas9/gRNA pair in creating double strand break (percent of gene modifications)” value [1] is reported as 27.55%.

With “AAVS1 gRNA#6: guide RNA to AAVS1; sense oligo SEQ ID 29 CACCGCGGGCCCCTATGTCCACTTC” the “efficiency of Cas9/gRNA pair in creating double strand break (percent of gene modifications)” value [1] was 39.62%.

With “CCR5 gRNA#1: guide RNA to CCR5; sense oligo SEQ ID 61 CACCGACAATGTGTCAACTCTTGAC” the “efficiency of Cas9/gRNA pair in creating double strand break (percent of gene modifications)” value [2] was 21.47%.

In the case of “CCR5 gRNA#2: guide RNA to CCR5; sense oligo SEQ ID 63 CACCGTCATCCTCCTGACAATCGAT”, the “efficiency of Cas9/gRNA pair in creating double strand break (percent of gene modifications)” value [2] is reported as greater than 60%.

In the case of “CCR5 gRNA#3: guide RNA to CCR5; sense oligo SEQ ID 65 CACCGGTGACAAGTGTGATCACTT”, the “efficiency of Cas9/gRNA pair in creating double strand break (percent of gene modifications)” value [2] is reported as 55.98%.

For “CCR5 gRNA#4: guide RNA to CCR5; sense oligo SEQ ID 67 CACCGACACAGCATGGACGACAGCC”, the “efficiency of Cas9/gRNA pair in creating double strand break (percent of gene modifications)” value [2] was 45.99%.

“CCR5 gRNA#5: guide RNA to CCR5; sense oligo SEQ ID 69 CACCGATCTGGTAAAGATGATTCC” was tested, and the “efficiency of Cas9/gRNA pair in creating double strand break (percent of gene modifications)” value [2] was 36.07%.

For “CCR5 gRNA#6: guide RNA to CCR5; sense oligo SEQ ID 71 CACCGTTGTATTTCCAAAGTCCCAC”, the “efficiency of Cas9/gRNA pair in creating double strand break (percent of gene modifications)” value [2] was 33.17%.

In the case of “CTLA4 gRNA#1: guide RNA to CTLA4; sense oligo SEQ ID 47 CACCGCCGGGTGACAGTGCTTCGGC”, the “efficiency of Cas9/gRNA pair in creating double strand break (percent of gene modifications)” value [3] is reported as 40.96%.

“CTLA4 gRNA#2: guide RNA to CTLA4; sense oligo SEQ ID 49 CACCGTGCGGCAACCTACATGATG” was tested, and the “efficiency of Cas9/gRNA pair in creating double strand break (percent of gene modifications)” value [3] was 56.10%.

“CTLA4 gRNA#3: guide RNA to CTLA4; sense oligo SEQ ID 51 CACCGCTAGATGATTCCATCTGCAC” was tested, and the “efficiency of Cas9/gRNA pair in creating double strand break (percent of gene modifications)” value [3] was 39.33%.

In the case of “CTLA4 gRNA#4: guide RNA to CTLA4; sense oligo SEQ ID 53 CACCGAGGTTCACTTGATTTCCAC”, the “efficiency of Cas9/gRNA pair in creating double strand break (percent of gene modifications)” value [3] is reported as 40.13%.

“CTLA4 gRNA#5: guide RNA to CTLA4; sense oligo SEQ ID 55 CACCGCCGCACAGACTTCAGTCACC” was tested, and the “efficiency of Cas9/gRNA pair in creating double strand break (percent of gene modifications)” value [3] was 15.90%.

“CTLA4 gRNA#6: guide RNA to CTLA4; sense oligo SEQ ID 57 CACCGCTGGCGATGCCTCGGCTGC” was tested, and the “efficiency of Cas9/gRNA pair in creating double strand break (percent of gene modifications)” value [3] was 36.93%.

“HPRT gRNA#1: guide RNA to HPRT; sense oligo SEQ ID 5 CACCGCACGTGTGAACCAACCCGCC” was tested, and the “efficiency of Cas9/gRNA pair in creating double strand break (percent of gene modifications)” value [4] was 27.85% ^.

With “HPRT gRNA#2: guide RNA to HPRT; sense oligo SEQ ID 7 CACCGAAACAACAGGCCGGGCGGGT” the “efficiency of Cas9/gRNA pair in creating double strand break (percent of gene modifications)” value [4] was 30.04% ^.

In the case of “HPRT gRNA#3: guide RNA to HPRT; sense oligo SEQ ID 9 CACCGACAAAAAAATTAGCCGGGTG”, the “efficiency of Cas9/gRNA pair in creating double strand break (percent of gene modifications)” value [4] is reported as less than 1%.

For “HPRT gRNA#4: guide RNA to HPRT; sense oligo SEQ ID 11 CACCGTAAATTTCTCTGATAGACTA”, the “efficiency of Cas9/gRNA pair in creating double strand break (percent of gene modifications)” value [4] was less than 5%.

For “HPRT gRNA#5: guide RNA to HPRT; sense oligo SEQ ID 13 CACCGTGTTTCAATGAGAGCATTAC”, the “efficiency of Cas9/gRNA pair in creating double strand break (percent of gene modifications)” value [4] was less than 1%.

For “HPRT gRNA#6: guide RNA to HPRT; sense oligo SEQ ID 15 CACCGGTCTCGAACTCCTGAGCTC”, the “efficiency of Cas9/gRNA pair in creating double strand break (percent of gene modifications)” value [4] was less than 5%.

“PD1 gRNA#1: guide RNA to PD-1; sense oligo SEQ ID 33 CACCGCGGAGAGCTTCGTGCTAAAC” was tested, and the “efficiency of Cas9/gRNA pair in creating double strand break (percent of gene modifications)” value [5] was 10.83%.

“PD1 gRNA#2: guide RNA to PD-1; sense oligo SEQ ID 35 CACCGCCTGCTCGTGGTGACCGAAG” was tested, and the “efficiency of Cas9/gRNA pair in creating double strand break (percent of gene modifications)” value [5] was greater than 60%.

In the case of “PD1 gRNA#4: guide RNA to PD-1; sense oligo SEQ ID 39 CACCGAGGCGGCCAGCTTGTCCGTC”, the “efficiency of Cas9/gRNA pair in creating double strand break (percent of gene modifications)” value [5] is reported as 20.87%.

With “PD1 gRNA#5: guide RNA to PD-1; sense oligo SEQ ID 41 CACCGCGTTGGGCAGTTGTGTGACA” the “efficiency of Cas9/gRNA pair in creating double strand break (percent of gene modifications)” value [5] was 30.60%.

For “PD1 gRNA#6: guide RNA to PD-1; sense oligo SEQ ID 43 CACCGACGGAAGCGGCAGTCCTGGC”, the “efficiency of Cas9/gRNA pair in creating double strand break (percent of gene modifications)” value [5] was 25.91%.
